Measured values taken from PubChem BioAssay AID256 (DTP/NCI, 2004).
Several values for one entry are separate records, joined by “and”; a condition that tells them apart may be missing. Equal values may be shown once. Toxic doses and inconclusive results are not listed. The calls were made as follows: active = survival T/C of 150% or more; inactive = T/C below 125% in these data.

Test system: CD2F1 mice, L1210 leukemia ip, survival T/C
Experiment: NCI In Vivo Anticancer Drug Screen. Data for tumor model L1210 Leukemia (intraperitoneal) in CD2F1 (CDF1) mice
Conditions: higher = longer survival
How it was run: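 Compound-dosed mice with transplantable tumor versus matched vehicle controls; endpoint ratio T/C reported.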

Measured: T/C

O=C(O)C1Cc2nc[nH]c2CN1CO (centres undefined)
inactive: endpoint: mean survival time, dose: 12.5 mg/kg/injection, schedule: Q01DX009 (ip), vehicle: saline with Tween-80 100 % of control | endpoint: mean survival time, dose: 25.0 mg/kg/injection, schedule: Q01DX009 (ip), vehicle: saline with Tween-80 100 % of control and 102 % of control | endpoint: mean survival time, dose: 50.0 mg/kg/injection, schedule: Q01DX009 (ip), vehicle: saline with Tween-80 100 % of control | endpoint: mean survival time, dose: 100.0 mg/kg/injection, schedule: Q01DX009 (ip), vehicle: saline with Tween-80 104 % of control and 109 % of control | endpoint: mean survival time, dose: 200.0 mg/kg/injection, schedule: Q01DX009 (ip), vehicle: saline with Tween-80 108 % of control | endpoint: mean survival time, dose: 400.0 mg/kg/injection, schedule: Q01DX009 (ip), vehicle: saline with Tween-80 108 % of control and 109 % of control

CN(C)c1ccc(N=Nc2ccc(S(=O)(=O)O)cc2)cc1.CN(C)c1ccc(N=Nc2ccc(S(=O)(=O)O)cc2)cc1.[NH-]C1CCCCC1[NH-].[Pt+2]
inactive: endpoint: median survival time, dose: 3.12 mg/kg/injection, schedule: Q04DX003 (ip), vehicle: saline 121 % of control and 107 % of control | endpoint: median survival time, dose: 6.25 mg/kg/injection, schedule: Q04DX003 (ip), vehicle: saline 109 % of control | endpoint: median survival time, dose: 100.0 mg/kg/injection, schedule: Q04DX003 (ip), vehicle: saline 105 % of control | endpoint: median survival time, dose: 200.0 mg/kg/injection, schedule: Q04DX003 (ip), vehicle: saline 116 % of control

C1CCC(C2CCCC[N-]2)[N-]C1.[Cl][Pt].[NH-]C(CC(N)=O)C(=O)O (centres undefined)
inactive: endpoint: median survival time, dose: 10.0 mg/kg/injection, schedule: Q04DX003 (ip), vehicle: saline 101 % of control | endpoint: median survival time, dose: 20.0 mg/kg/injection, schedule: Q04DX003 (ip), vehicle: saline 93 % of control | endpoint: median survival time, dose: 40.0 mg/kg/injection, schedule: Q04DX003 (ip), vehicle: saline 98 % of control | endpoint: median survival time, dose: 80.0 mg/kg/injection, schedule: Q04DX003 (ip), vehicle: saline 91 % of control and 104 % of control | endpoint: median survival time, dose: 160.0 mg/kg/injection, schedule: Q04DX003 (ip), vehicle: saline 95 % of control | endpoint: median survival time, dose: 320.0 mg/kg/injection, schedule: Q04DX003 (ip), vehicle: saline 86 % of control

NC(=O)c1cccnc1
inactive: endpoint: mean survival time, dose: 175.0 mg/kg/injection, schedule: Q04HX040 (ip), vehicle: water 109 % of control | endpoint: mean survival time, dose: 350.0 mg/kg/injection, schedule: Q04HX040 (ip), vehicle: water 103 % of control

Cc1ccc(O)c(N)c1
inactive: endpoint: mean survival time, dose: 100.0 mg/kg/injection, schedule: Q04DX003 (ip), vehicle: saline with Tween-80 93 % of control | endpoint: mean survival time, dose: 200.0 mg/kg/injection, schedule: Q04DX003 (ip), vehicle: saline with Tween-80 111 % of control

O=c1[nH]cnc2c1ccn2C1OC(CO)C(O)C1O (centres undefined)
inactive: endpoint: mean survival time, dose: 6.25 mg/kg/injection, schedule: Q01DX009 (ip), vehicle: saline 111 % of control | endpoint: mean survival time, dose: 6.25 mg/kg/injection, schedule: Q04DX003 (ip), vehicle: saline sonified 106 % of control | endpoint: mean survival time, dose: 12.5 mg/kg/injection, schedule: Q01DX009 (ip), vehicle: saline 90 % of control | endpoint: mean survival time, dose: 12.5 mg/kg/injection, schedule: Q04DX003 (ip), vehicle: saline sonified 109 % of control | endpoint: mean survival time, dose: 16.7 mg/kg/injection, schedule: Q04DX003 (ip), vehicle: saline sonified 121 % of control | endpoint: mean survival time, dose: 25.0 mg/kg/injection, schedule: Q04DX003 (ip), vehicle: saline sonified 113 % of control | endpoint: mean survival time, dose: 37.5 mg/kg/injection, schedule: Q04DX003 (ip), vehicle: saline sonified 119 % of control

CCN=c1cc2oc3cc(NCC)c(C)cc3c(-c3ccccc3C(=O)OCC)c-2cc1C
inactive: endpoint: mean survival time, dose: 2.5 mg/kg/injection, schedule: Q04DX003 (ip), vehicle: saline 101 % of control | endpoint: mean survival time, dose: 5.0 mg/kg/injection, schedule: Q04DX003 (ip), vehicle: saline 109 % of control | endpoint: mean survival time, dose: 10.0 mg/kg/injection, schedule: Q04DX003 (ip), vehicle: saline 90 % of control and 102 % of control

O=c1[nH]c2ccccc2nc1C(Cl)Cl
inactive: endpoint: mean survival time, dose: 25.0 mg/kg/injection, schedule: Q01DX009 (ip), vehicle: Klucel (hydroxypropylcellulose) (HPC) 105 % of control | endpoint: mean survival time, dose: 50.0 mg/kg/injection, schedule: Q01DX009 (ip), vehicle: Klucel (hydroxypropylcellulose) (HPC) 100 % of control | endpoint: mean survival time, dose: 50.0 mg/kg/injection, schedule: Q04DX003 (ip), vehicle: Klucel (hydroxypropylcellulose) (HPC) 114 % of control | endpoint: mean survival time, dose: 100.0 mg/kg/injection, schedule: Q01DX009 (ip), vehicle: Klucel (hydroxypropylcellulose) (HPC) 116 % of control | endpoint: mean survival time, dose: 100.0 mg/kg/injection, schedule: Q04DX003 (ip), vehicle: Klucel (hydroxypropylcellulose) (HPC) 105 % of control | endpoint: mean survival time, dose: 200.0 mg/kg/injection, schedule: Q04DX003 (ip), vehicle: Klucel (hydroxypropylcellulose) (HPC) 105 % of control | endpoint: median survival time, dose: 50.0 mg/kg/injection, schedule: Q04DX003 (ip), vehicle: Klucel (hydroxypropylcellulose) (HPC) 107 % of control | endpoint: median survival time, dose: 100.0 mg/kg/injection, schedule: Q04DX003 (ip), vehicle: Klucel (hydroxypropylcellulose) (HPC) 104 % of control | endpoint: median survival time, dose: 200.0 mg/kg/injection, schedule: Q04DX003 (ip), vehicle: Klucel (hydroxypropylcellulose) (HPC) 117 % of control
